Test results published in patent US10238667B2, “Vitamin D receptor/SMAD genomic circuit gates fibrotic response” (Salk Institute for Biological Studies, priority 2013, dated 2019).

Tested on: primary rat HSCs
Test: Microarray expression profiling of TGFβ1 and TGFβ1+1,25(OH)2D3-treated HSCs
Assay type: cell-based
Excerpt: VDR Signaling Suppresses TGFβ-induced Pro-Fibrotic Genes. […] Euclidean clustering of both rows and columns using log2 transformed microarray expression data, n=2 per treatment group. […] Data represents the mean±SEM of at least three independent experiments performed in triplicate. Asterisks denote statistically significant differences (Student's unpaired t-test, *p<0.05, **p<0.01). HSCs were isolated from 10-week old male C57BL/6J mice and Wistar rats by in situ pronase, collagenase perfusion and single-step Histogenz gradient as previously reported (Hendriks et al., 1985; Knook et al., 1982). Isolated HSCs were cultured in DMEM (Mediatech) containing 20% FBS (Hyclone) on 6-well plates for 40 hours prior to end-point assays. Total RNA from primary rat or mouse HSCs was isolated using the RNeasy mini kit (Qiagen) according to standard protocols. RNA integrity and quality was assessed using the Agilent Bioanalyzer and prepared for hybridization to Illumina rat or mouse gene expression arrays according to standard Illumina protocols. Feature extraction was performed using the Illumina GenomeStudio software. Normalization and identification of differentially expressed genes from biological duplicates was performed using […] at http://sasquatch.ucsd.edu/vampire/.

SMILES: C=C1/C(=C\C=C2/CCC[C@]3(C)C([C@H](C)CCCC(C)(C)O)CC[C@@H]23)C[C@@H](O)C[C@@H]1O (stereo partly drawn) [1,25(OH)2D3, 1α,25 dihydroxyvitamin D3]
- TGFβ1 induced genes (1,25(OH)2D3 co-treatment with TGFβ1): considerable repression
- Mmp13 VitD + TGF β Avg Signal (TGFβ1 1 ng/ml + 1,25(OH)2D3 100 nM, 24 h, Control 150.8, TGFβ 202.4): 180.0
- Col4a2 VitD + TGF β Avg Signal (TGFβ1 1 ng/ml + 1,25(OH)2D3 100 nM, 24 h, Control 162.6, TGFβ 225.3): 166.2
- Itga7 VitD + TGF β Avg Signal (TGFβ1 1 ng/ml + 1,25(OH)2D3 100 nM, 24 h, Control 170.2, TGFβ 202.7): 161.9
- Col16a1 VitD + TGF β Avg Signal (TGFβ1 1 ng/ml + 1,25(OH)2D3 100 nM, 24 h, Control 175.4, TGFβ 237.2): 173.3
- Col7a1 VitD + TGF β Avg Signal (TGFβ1 1 ng/ml + 1,25(OH)2D3 100 nM, 24 h, Control 185.8, TGFβ 229.6): 190.3
- Itga2 VitD + TGF β Avg Signal (TGFβ1 1 ng/ml + 1,25(OH)2D3 100 nM, 24 h, Control 188.5, TGFβ 257.9): 204.2
- LOC366205 VitD + TGFbeta AVG signal (TGFβ1 1 ng/ml + 1,25(OH)2D3 100 nM, 24 h, Control 193.2, TGFβ 926.6): 140.7
- Tgfb3 VitD + TGF β Avg Signal (TGFβ1 1 ng/ml + 1,25(OH)2D3 100 nM, 24 h, Control 226.4, TGFβ 288.5): 178.6
- LOC499272 VitD + TGFbeta AVG signal (TGFβ1 1 ng/ml + 1,25(OH)2D3 100 nM, 24 h, Control 234.2, TGFβ 620): 140.2
- LOC497796 VitD + TGFbeta AVG signal (TGFβ1 1 ng/ml + 1,25(OH)2D3 100 nM, 24 h, Control 240.8, TGFβ 4341): 859
- Col15a1 VitD + TGF β Avg Signal (TGFβ1 1 ng/ml + 1,25(OH)2D3 100 nM, 24 h, Control 257.9, TGFβ 616.4): 396.9
- Ly49si1 VitD + TGFbeta AVG signal (TGFβ1 1 ng/ml + 1,25(OH)2D3 100 nM, 24 h, Control 261.1, TGFβ 622.8): 134.7
- Tgfbr1 VitD + TGF β Avg Signal (TGFβ1 1 ng/ml + 1,25(OH)2D3 100 nM, 24 h, Control 277.1, TGFβ 365.1): 331.9
- Mmp7 VitD + TGF β Avg Signal (TGFβ1 1 ng/ml + 1,25(OH)2D3 100 nM, 24 h, Control 277.3, TGFβ 469.3): 164.9
- LOC499100 VitD + TGFbeta AVG signal (TGFβ1 1 ng/ml + 1,25(OH)2D3 100 nM, 24 h, Control 281.2, TGFβ 594.6): 154.4
- LOC305269 VitD + TGFbeta AVG signal (TGFβ1 1 ng/ml + 1,25(OH)2D3 100 nM, 24 h, Control 288.8, TGFβ 687.8): 170.6
- Tgfbr2 VitD + TGF β Avg Signal (TGFβ1 1 ng/ml + 1,25(OH)2D3 100 nM, 24 h, Control 289.0, TGFβ 347.6): 358.9
- Stab1_predict VitD + TGFbeta AVG signal (TGFβ1 1 ng/ml + 1,25(OH)2D3 100 nM, 24 h, Control 303.7, TGFβ 1141.2): 204.7
- Mmp19 VitD + TGF β Avg Signal (TGFβ1 1 ng/ml + 1,25(OH)2D3 100 nM, 24 h, Control 319.6, TGFβ 516.3): 308.7
- Cdh1 VitD + TGFbeta AVG signal (TGFβ1 1 ng/ml + 1,25(OH)2D3 100 nM, 24 h, Control 337.9, TGFβ 553.9): 126.8
- Dcir2 VitD + TGFbeta AVG signal (TGFβ1 1 ng/ml + 1,25(OH)2D3 100 nM, 24 h, Control 426.1, TGFβ 842.9): 184.9
- Cysltr1 VitD + TGFbeta AVG signal (TGFβ1 1 ng/ml + 1,25(OH)2D3 100 nM, 24 h, Control 429.3, TGFβ 801.8): 183.5
- LOC501570 VitD + TGFbeta AVG signal (TGFβ1 1 ng/ml + 1,25(OH)2D3 100 nM, 24 h, Control 429.6, TGFβ 887.6): 192.5
- Tmem26_pred VitD + TGFbeta AVG signal (TGFβ1 1 ng/ml + 1,25(OH)2D3 100 nM, 24 h, Control 457.8, TGFβ 912.3): 237.3
- Pirb VitD + TGFbeta AVG signal (TGFβ1 1 ng/ml + 1,25(OH)2D3 100 nM, 24 h, Control 462.9, TGFβ 913.7): 171.1
- LOC366608 VitD + TGFbeta AVG signal (TGFβ1 1 ng/ml + 1,25(OH)2D3 100 nM, 24 h, Control 469.9, TGFβ 892.8): 203.6
- Col1a1 VitD + TGF β Avg Signal (TGFβ1 1 ng/ml + 1,25(OH)2D3 100 nM, 24 h, Control 474.2, TGFβ 1429.1): 557.9
- Loxl2 VitD + TGF β Avg Signal (TGFβ1 1 ng/ml + 1,25(OH)2D3 100 nM, 24 h, Control 495.5, TGFβ 966.5): 597.0
- Timp2 VitD + TGF β Avg Signal (TGFβ1 1 ng/ml + 1,25(OH)2D3 100 nM, 24 h, Control 500.7, TGFβ 913.0): 751.7
- Col3a1 VitD + TGF β Avg Signal (TGFβ1 1 ng/ml + 1,25(OH)2D3 100 nM, 24 h, Control 513.9, TGFβ 965.1): 287.6
- Col6a3 VitD + TGF β Avg Signal (TGFβ1 1 ng/ml + 1,25(OH)2D3 100 nM, 24 h, Control 526.5, TGFβ 848.2): 442.6
- Loxl1 VitD + TGF β Avg Signal (TGFβ1 1 ng/ml + 1,25(OH)2D3 100 nM, 24 h, Control 537.2, TGFβ 1045.1): 560.1
- Ly49si2 VitD + TGFbeta AVG signal (TGFβ1 1 ng/ml + 1,25(OH)2D3 100 nM, 24 h, Control 538.9, TGFβ 1177): 256
- LOC361699 VitD + TGFbeta AVG signal (TGFβ1 1 ng/ml + 1,25(OH)2D3 100 nM, 24 h, Control 557.1, TGFβ 1013.7): 263.7
- Mmp10 VitD + TGF β Avg Signal (TGFβ1 1 ng/ml + 1,25(OH)2D3 100 nM, 24 h, Control 561.7, TGFβ 1042.3): 764.6
- Col8a1 VitD + TGF β Avg Signal (TGFβ1 1 ng/ml + 1,25(OH)2D3 100 nM, 24 h, Control 574.2, TGFβ 1285.9): 773.5
- Ccl12_predicte VitD + TGFbeta AVG signal (TGFβ1 1 ng/ml + 1,25(OH)2D3 100 nM, 24 h, Control 597, TGFβ 1047.9): 191.1
- Col5a1 VitD + TGF β Avg Signal (TGFβ1 1 ng/ml + 1,25(OH)2D3 100 nM, 24 h, Control 611.1, TGFβ 1418.9): 673.0
- LOC304349 VitD + TGFbeta AVG signal (TGFβ1 1 ng/ml + 1,25(OH)2D3 100 nM, 24 h, Control 664, TGFβ 1503.8): 211.1
- Tgfb2 VitD + TGF β Avg Signal (TGFβ1 1 ng/ml + 1,25(OH)2D3 100 nM, 24 h, Control 814.7, TGFβ 1308.4): 388.0
- LOC498751 VitD + TGFbeta AVG signal (TGFβ1 1 ng/ml + 1,25(OH)2D3 100 nM, 24 h, Control 827.8, TGFβ 2611.8): 516.6
- Emr1 VitD + TGFbeta AVG signal (TGFβ1 1 ng/ml + 1,25(OH)2D3 100 nM, 24 h, Control 831.7, TGFβ 1893.5): 319.1
- LOC502904 VitD + TGFbeta AVG signal (TGFβ1 1 ng/ml + 1,25(OH)2D3 100 nM, 24 h, Control 858.7, TGFβ 1425.7): 213.6
- Itga5 VitD + TGF β Avg Signal (TGFβ1 1 ng/ml + 1,25(OH)2D3 100 nM, 24 h, Control 880.0, TGFβ 1227.3): 1158.1
- Cacnb3 VitD + TGFbeta AVG signal (TGFβ1 1 ng/ml + 1,25(OH)2D3 100 nM, 24 h, Control 906.9, TGFβ 2511.6): 415.9
- Bmp2 VitD + TGFbeta AVG signal (TGFβ1 1 ng/ml + 1,25(OH)2D3 100 nM, 24 h, Control 954.6, TGFβ 1628.6, listed as VitD): 305
- Gas7 VitD + TGFbeta AVG signal (TGFβ1 1 ng/ml + 1,25(OH)2D3 100 nM, 24 h, Control 1039.2, TGFβ 4083.5): 832.8
- Slamf9_predic VitD + TGFbeta AVG signal (TGFβ1 1 ng/ml + 1,25(OH)2D3 100 nM, 24 h, Control 1044.7, TGFβ 1762.9): 417.9
- Itga4 VitD + TGF β Avg Signal (TGFβ1 1 ng/ml + 1,25(OH)2D3 100 nM, 24 h, Control 1128.4, TGFβ 1464.4): 380.6
- LOC498741 VitD + TGFbeta AVG signal (TGFβ1 1 ng/ml + 1,25(OH)2D3 100 nM, 24 h, Control 1156.2, TGFβ 1908.8): 314.1
- Hod VitD + TGFbeta AVG signal (TGFβ1 1 ng/ml + 1,25(OH)2D3 100 nM, 24 h, Control 1297, TGFβ 2520.2): 495.9
- LOC502907 VitD + TGFbeta AVG signal (TGFβ1 1 ng/ml + 1,25(OH)2D3 100 nM, 24 h, Control 1399.7, TGFβ 2318.7): 241.9
- Ptprc VitD + TGFbeta AVG signal (TGFβ1 1 ng/ml + 1,25(OH)2D3 100 nM, 24 h, Control 1582.3, TGFβ 2387): 569.1
- Itgam VitD + TGF β Avg Signal (TGFβ1 1 ng/ml + 1,25(OH)2D3 100 nM, 24 h, Control 1689.7, TGFβ 2297.0): 658.0
- Col4a1 VitD + TGF β Avg Signal (TGFβ1 1 ng/ml + 1,25(OH)2D3 100 nM, 24 h, Control 1708.1, TGFβ 2261.0): 1315.2
- Chst1_predict VitD + TGFbeta AVG signal (TGFβ1 1 ng/ml + 1,25(OH)2D3 100 nM, 24 h, Control 1813.1, TGFβ 4284.5): 337.6
- Dsipi VitD + TGFbeta AVG signal (TGFβ1 1 ng/ml + 1,25(OH)2D3 100 nM, 24 h, Control 1943.2, TGFβ 4575.5): 1152
- Ccr5 VitD + TGFbeta AVG signal (TGFβ1 1 ng/ml + 1,25(OH)2D3 100 nM, 24 h, Control 2069.5, TGFβ 4680.9): 362.3
- Itgav VitD + TGF β Avg Signal (TGFβ1 1 ng/ml + 1,25(OH)2D3 100 nM, 24 h, Control 2145.1, TGFβ 4760.5): 2417.2
- Mmp9 VitD + TGF β Avg Signal (TGFβ1 1 ng/ml + 1,25(OH)2D3 100 nM, 24 h, Control 2153.3, TGFβ 4197.3): 2676.4
- Col5a2 VitD + TGF β Avg Signal (TGFβ1 1 ng/ml + 1,25(OH)2D3 100 nM, 24 h, Control 2181.0, TGFβ 3452.2): 1696.8
- Lox VitD + TGF β Avg Signal (TGFβ1 1 ng/ml + 1,25(OH)2D3 100 nM, 24 h, Control 2260.8, TGFβ 7481.1): 4219.9
- LOC499356 VitD + TGFbeta AVG signal (TGFβ1 1 ng/ml + 1,25(OH)2D3 100 nM, 24 h, Control 2562.8, TGFβ 3888.4): 352.7
- Fchsd2_predic VitD + TGFbeta AVG signal (TGFβ1 1 ng/ml + 1,25(OH)2D3 100 nM, 24 h, Control 2632.5, TGFβ 7594.5): 1565
- Tgfb1 VitD + TGF β Avg Signal (TGFβ1 1 ng/ml + 1,25(OH)2D3 100 nM, 24 h, Control 2922.5, TGFβ 5480.4): 4391.0
- Ms4a4a_predi VitD + TGFbeta AVG signal (TGFβ1 1 ng/ml + 1,25(OH)2D3 100 nM, 24 h, Control 3327, TGFβ 14356): 810.7
- Pcsk1 VitD + TGFbeta AVG signal (TGFβ1 1 ng/ml + 1,25(OH)2D3 100 nM, 24 h, Control 3330.8, TGFβ 6754.6): 912.4
- Ms4a6a_predi VitD + TGFbeta AVG signal (TGFβ1 1 ng/ml + 1,25(OH)2D3 100 nM, 24 h, Control 3823.9, TGFβ 7658.8): 1696
